Measured values: patent US20250114416A1, “ANTIVIRAL C[…] EXTRACT AND STEROID COMPOUND AS ACTIVE INGREDIENTS” (priority 2022, published 2025)
Where two headings read alike, the source gives them in different places.

What was measured:
Adenovirus type 5 [1] = assay type: cell-based; conditions: examples using ginseng (Table 1); Vero-E6 cells, 100 μg/ml pretreatment 2 h, 50 pfu/well, 72 h; non-treated control = 100
Adenovirus type 5 [2] = conditions: examples using ginseng (Table 1); lung tissue of K18-ACE2 TG mice, oral, three days after infection; non-treated control = 100

Structure (SMILES)	Relative virus titer Adenovirus type 5 (Adenovirus type 5 [1])	Relative virus titer Adenovirus type 5 (Adenovirus type 5 [2])
C[C@]12C=CC(=O)C=C1CC[C@H]1[C@@H]3C[C@@H](O)[C@](O)(C(=O)CO)[C@@]3(C)C[C@H](O)[C@@]12F [Comparative Example 7, Triamcinolone]	102 ± 1.9	101 ± 1.9
C[C@]12C=CC(=O)C=C1CC[C@@H]1[C@@H]2[C@@H](O)C[C@@]2(C)[C@H]1CC[C@]2(O)C(=O)CO [Comparative Example 6, Prednisolone]	102 ± 1.9	102 ± 1.9
C[C@@H]1C[C@H]2[C@@H]3CCC4=CC(=O)C=C[C@]4(C)[C@@]3(F)[C@@H](O)C[C@]2(C)[C@@]1(O)C(=O)CO [Comparative Example 4, Dexamethasone]	102 ± 1.9	102 ± 1.9
C[C@]12CCC(=O)C=C1CC[C@@H]1[C@@H]2[C@@H](O)C[C@@]2(C)[C@H]1CC[C@]2(O)C(=O)CO [Comparative Example 5, Hydrocortisone]	103 ± 1.9	101 ± 1.9
